Structures are written as SMILES.

As usually defined, the IC50 is the concentration needed to halve the response being measured.

The target of one test is T1, human recombinant DPP-IV (Homo sapiens, UniProt P27487).
T1 construct: purchased Cayman Chemical
Nature of the test: DPP-IV inhibitor screening assay kit (Cayman), fluorogenic substrate Gly-Pro-AMC. The test is classed as biochemical. The conditions noted are these: mean ± SD of three independent experiments. How it is done:
To the best of our knowledge, no prior studies examined the in vitro DPP-IV-inhibitory effects of 1–3, although the protein-ligand complex for 3 was examined via molecular docking analysis, using Discovery Studio 3.0 and Meta-Pocket (http://projects.biotec.tu-dresden.de/metapocket/).
DPP-IV activity was analyzed using a DPP-IV inhibitor screening assay kit (Cayman Chemical, Ann Arbor, MI, USA), which provided a fluorescence-based method for screening DPP-IV inhibitors. The assay used the fluorogenic substrate, Gly-Pro-Aminomethylcoumarine (AMC), to measure DPP-IV activity. Cleavage of the peptide bond by DPP released the free AMC group, resulting in fluorescence that could be analyzed using an excitation wavelength of 350–360 nm and an emission wavelength of 450–465 nm.
The tested compounds were initially dissolved in DMSO to produce 50 mM stock solution, and subsequently diluted to the required concentrations using DMSO, and then they were added to a 96-well plate in final volume of 10 μL and a final concentration of 50 μM. The assay procedure is described briefly according to the manufacturer’s protocols as follows: Diluted assay buffer (30 μL) and diluted enzyme solution (10 μL) were added to the 96-well plate containing 10 μL of solvent (blank) or solvent-dissolved test compounds. The reaction was initiated by adding 50 μL of a diluted substrate solution, and the plate was incubated for 30 min at 37 °C. After incubation, fluorescence with an excitation wavelength of 350 nm and an emission wavelength of 450 nm was monitored using a plate reader (TECAN, Männedorf, Switzerland). The percent inhibition was expressed as ([DPP-IV level of vehicle–treated control–DPP-IV level of test samples]/DPP-IV level of vehicle-treated control) × 100.

In test [1] the test system is DPP-IV. The note with it: DPP-IV Glo Protease Assay kit (Promega); cited from earlier work.
The subject of test [2] is DPP-IV. Also on record: method as in PMID 22410395. The conditions noted are these: cited from earlier work.

T1 sequence (P27487 whole entry): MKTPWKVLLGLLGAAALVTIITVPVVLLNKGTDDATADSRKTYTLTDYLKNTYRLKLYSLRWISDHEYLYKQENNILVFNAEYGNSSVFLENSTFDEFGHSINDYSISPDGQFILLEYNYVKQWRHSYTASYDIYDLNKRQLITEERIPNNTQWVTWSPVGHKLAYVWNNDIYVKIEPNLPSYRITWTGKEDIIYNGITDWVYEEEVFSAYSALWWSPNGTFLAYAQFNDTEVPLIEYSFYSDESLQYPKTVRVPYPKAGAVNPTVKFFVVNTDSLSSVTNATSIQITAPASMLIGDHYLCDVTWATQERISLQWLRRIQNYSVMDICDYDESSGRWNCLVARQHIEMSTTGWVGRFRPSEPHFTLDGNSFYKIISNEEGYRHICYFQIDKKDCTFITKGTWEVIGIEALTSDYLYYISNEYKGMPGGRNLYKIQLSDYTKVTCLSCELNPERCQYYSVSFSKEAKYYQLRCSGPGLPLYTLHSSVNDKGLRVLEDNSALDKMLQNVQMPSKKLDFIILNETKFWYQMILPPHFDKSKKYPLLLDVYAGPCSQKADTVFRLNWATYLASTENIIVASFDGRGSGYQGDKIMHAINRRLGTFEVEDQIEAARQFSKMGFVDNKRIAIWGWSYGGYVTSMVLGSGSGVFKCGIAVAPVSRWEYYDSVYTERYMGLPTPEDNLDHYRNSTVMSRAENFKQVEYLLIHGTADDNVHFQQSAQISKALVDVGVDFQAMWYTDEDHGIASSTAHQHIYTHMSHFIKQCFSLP

On to `CC1OC(Oc2cc(O)c3c(=O)c(OC4OC(CO)C(O)C(O)C4OC4OC(CO)C(O)C(O)C4O)c(-c4ccc(O)cc4)oc3c2)C(O)C(O)C1O` (stereo not drawn) [Compound 1, kaempferol-3-O-β-gulcopyranosyl-(1→2)-β-galactopyranosyl-7-O-α-rhamnopyranoside], for which the IC50 on human recombinant DPP-IV was 27.9 ± 1.29 µM. The same measure, in the same setting: as for `CC1OC(OCC2OC(Oc3c(-c4ccc(O)cc4)oc4cc(OC5OC(C)C(O)C(O)C5O)cc(O)c4c3=O)C(OC3OC(CO)C(O)C(O)C3O)C(O)C2O)C(O)C(O)C1O` (stereo not drawn) [Compound 2, kaempferol-3-O-β-gulcopyranosyl-(1→2)-[α-rhamnopyranosyl(1→6)]-β-galactopyranosyl-7-O-α-rhamnopyranoside], the figure is 36.5 ± 0.78 µM.

For the compound `CC1OC(OCC2OC(Oc3c(-c4ccc(O)cc4)oc4cc(OC5OC(C)C(O)C(O)C5O)cc(O)c4c3=O)C(O)C(O)C2O)C(O)C(O)C1O` (stereo not drawn) [Compound 3, kaempferol-3-O-α-rhamnosyl(1→6)-O-β-galactopyranoside-7-O-α-rhamnopyranoside], the IC50 at human recombinant DPP-IV was 37 ± 1.4 µM. Regarding `O=c1c(O)c(-c2ccc(O)cc2)oc2cc(O)cc(O)c12` [Compound 4, kaempferol], the IC50 at human recombinant DPP-IV was 51.7 ± 4.83 µM; in the test with DPP-IV [1], 0.49 ± 0.02 µM.

Take `O=c1c(O[C@@H]2O[C@H](CO)[C@@H](O)[C@H](O)[C@H]2O)c(-c2ccc(O)c(O)c2)oc2cc(O)cc(O)c12` [isoquercitrin]: in the test with DPP-IV [2], the “in vivo bioactivities as a DPP-IV inhibitor” value was “strong in vivo bioactivities”. With `C[C@@H]1O[C@@H](O[C@H]2[C@H](Oc3cc(O)c4c(c3)O[C@H](c3ccc(O)cc3)CC4=O)O[C@H](CO)[C@@H](O)[C@@H]2O)[C@H](O)[C@H](O)[C@H]1O` [naringin], the “in vivo bioactivities as a DPP-IV inhibitor” value in the test with DPP-IV [2] is listed as “strong in vivo bioactivities”.
